Read-outs that look alike come from different tables or passages of the source.
Legend:
[1] = test system: JeKo1; assay: In vitro cytotoxicity analysis, JeKo1; type: cell-based; details: Homo sapiens, JeKo-1
From the text: (§1) The A549 lung cancer, WiDr colorectal cancer, MCF-7 breast cancer, PC-3 prostate cancer, and OVCAR-3 ovarian cancer cell lines were purchased from the American Type Culture Collection (ATCC, Manassas, Va.) and were maintained in growth media as recommended by the ATCC. The JeKo-1 and JVM-2 mantle cell lymphoma cell lines were purchased from the DSMZ (Brunswick, Germany) and were maintained in growth media as recommended by the vendor. The pediatric rhabdomyosarcoma Rh18 cell line was provided y Dr. P. Houghton (Ohio State University—Nationwide Children's Hospital, Columbus, Ohio) and were maintained in growth media as recommended by Dr. Houghton. All cell culture media were supplemented with L-glutamine and penicillin/streptomycin. All cells were grown under standard culture conditions in CO2 incubators, at 37° C., with 5% CO2, and 100% relative humidity.
(§2) Cell viabilities were determined by measuring the cleavage of (sodium 3′-[1-(phenylaminocarbonyl)-3,4-tetrazolium]-bis(4-methoxy-6-nitro)benzene sulfonic acid hydrate) (XTT) to a water-soluble orange formazan by mitochondrial dehydrogenase, following the manufacturer's instructions (Roche Applied Science, Indianapolis, Ind.). Briefly, cell lines were seeded at various cell densities depending on the cell type. The adherent cell lines were allowed to adhere overnight before compound addition, whereas the suspension cell lines were seeded the day of compound addition. Stock concentrations of the compounds were made in DMSO, diluted in culture media and subsequently added to the plates at various final concentrations, then incubated for 72 hours. After the incubation period, the XTT labeling reagent, containing the electron-coupling reagent, was added to each well and incubated for 4 hours. The absorbance of each well was then read at 490 nm with a reference wavelength of 690 nm using a VersaMax™ microplate reader (Sunnyvale, Calif.). Data are expressed as the percentage of growth compared to vehicle-treated cells, as calculated from absorbance and corrected for background absorbance.
(§3) Alternatively, cell lines were seeded in 100 μL cell culture medium in 96-well plates. Depending on the cell proliferation rate, cells were seeded at 4,000 to 6,000 cells/well. Suspension cell cultures were initiated with 20,000 cells/well. The cells were incubated overnight at 37° C., and then the drug treatments were started by adding 50 μL medium containing the corresponding drug dilution and DMSO. The final concentration of DMSO onto the cells was 0.5% v/v in all wells. The cells viability was determined using the CellTiter-Glo Luminescent Cell Viability Assay (Promega, Madison, Wis.). The CellTiter-Glo reagent was prepared according to the manufacturer's instructions, and then 50 μL reagent was added to each well for 1 h at rt. The luminescence was measured on an Envision Multilabel Plate Reader (PerkinElmer, Waltham, Mass.). The IC50 values were calculated from the dose-response curve analysis with GraphPad Prism 6.01 (GraphPad Software, La Jolla, Calif.) using the nonlinear regression model 4 Parameter Logistic. Nine concentrations were generated by 1:2 serial dilutions for each IC50 assay. Each drug concentration was evaluated in triplicate or quadruplicate.

[2] = test system: PC3; assay: In vitro cytotoxicity analysis, PC3; type: cell-based; details: Homo sapiens
From the text: as §1, §2, §3

[3] = test system: AML blast cells with wild-type or mutant S34F U2AF1, CD34+ cells; assay: Replication by 5-ethynyl-2′-deoxyuridine incorporation; type: cell-based; details: concentration dependent; mutant vs wild-type U2AF1 AML blasts vs CD34+ cells
Method: Replication was determined from incorporation of 5-ethynyl-2′-deoxyuridine using standard assay techniques.

[4] = test system: MDM2 alternative splicing in Rh18 cells; assay: In vitro alternative splicing assay (MDM2, RT-PCR); type: cell-based; details: for MDM2 Splicing Effects: Rh18 cells, 8 h exposure, Table II
Method: Briefly, following an 8 h exposure of exponentially growing cells to drug, total RNA was isolated using TRIzol reagent (Invitrogen, Carlsbad, Calif.). Total RNA (1 μg) was used to convert the mRNA to cDNA by using random primers, Oligo(dT)16 and Omniscript Reverse Transcription Kit (Qiagen, Germantown, Md.). PCR analyses were performed using specific oligonucleotides (see Table I) and standard amplification protocols. PCR products were separated by agarose gel electrophoresis, visualized by ethidium bromide staining on an UV transilluminator, and recorded. PCR band sizes were calculated by comparing them to the standard EZ Load 100-bp PCR Molecular Ruler (BioRad Laboratories, Hercules, Calif.).

[5] = test system: cell lines investigated; assay: Drug combination assays, cell line not stated; type: cell-based
Method: (§4) Preliminary cytotoxic screenings for each drug used in drug combination assays were performed to determine their cytotoxic dose range. […] Eight concentrations were established by 1:3 serial dilutions of the single drugs and their combinations with the splicing modulators. All drug concentrations were evaluated in triplicate in 96-well cell culture plates. Assays of individual drugs and drug combinations were run on the same tissue culture plate. Cell viability was determined using the CellTiter-Glo reagent.
(§5) Luminescence data obtained from the cell viability determinations were formatted per the requirements of the analytical software (viability data range: >0 and <1). The formatted data were analyzed with the software CalcuSyn 2.1 (Biosoft, Cambridge, UK), which provides quantitative CI values for the drug interaction analyses (see ranges in Supplementary Table S2).

[6] = test system: c-kit positive bone marrow cells transduced with GFP, WT-U2AF1 or MUT-U2AF1 (S34F); assay: GFP expression and apoptosis in U2AF1 transduced cells; type: cell-based, C57BL/6 mice
Method: Bone marrow was collected from C57BL/6 mice and pooled together in a single solution, and then c-kit positive cells were selected. The c-kit positive cells were cultured with media enriched with stem cell factor (SCF), Flt-3, IL3, and thromboprotein (TPO), and other cytokines. Murine stem cell virus (MSCV) was used to transduce these cells with one of three constructs as indicated in the figure: GFP (control), U2AF1-IRES-GFP (indicated as WT-U2AF1 in the figure), or U2AF1^S34F-IRES-GFP (indicated as MUT-U2AF1 in the figure). The transduced cells carry a construct that expresses GFP and as indicated wild-type or mutant U2AF1. The control cells construct expresses only GFP. […] The assay data are expressed as the percentage of annexin V stained cells among the GFP positive cells. […] These cells show an increased tendency to apoptosis (i.e. increased expression of annexin V) in the GFP positive cells.

[7] = Solubility in phosphate buffered saline (HPLC); type: physicochemical
[8] = Mouse plasma stability (HPLC); type: in vitro ADME; details: mouse plasma at 37° C.
[9] = test system: cytotoxicity or splicing modulation; assay: Rapid onset of cytotoxicity or splicing modulation; type: cell-based; details: maximum cytotoxicity or splicing modulation within 5 hours of drug treatment
Method: The cell were seeded in of 100 μl of medium into 96-well plates (HeLa at 4×10^4 cell/well; SK_MEL_2 at 6×10^4 cell/well), they were allowed to attach overnight, and then treatments started by adding 50 μl of medium containing Sudemycin D6 to produce a final concentration of 1 μM and DMSO to 0.5% v/v final into the experimental well. Continuous drug treatments were run in the same plate, using concentrations of 0, 62.5, 125, 250, 500 & 1000 nM final. DMSO was added into all wells, including non-treated wells to 0.5% v/v final concentration. For wells where the drug was withdrawn, the medium was carefully aspirated after 1, 2, 3 and 4 hours after the addition of the drug, the cells were washed once with PBS and then 150 μl of fresh cell culture medium containing 0.5% v/v DMSO was added into all washed out wells. After 72 hours of the addition of drug, the cell viability was determined using CellTiter-Glo luminescent cell viability assay (Promega, Madison, Wis.), and Sudemycin D6 cytotoxicity was calculated as the percentage of cell proliferation inhibition against the control treatment DMSO.

[10] = test system: SK-MEL-2; assay: Drug combination assay, SK-MEL-2; type: cell-based; details: for Interaction Type: listed drug combined with compound 19, Ineffective = drug IC50 much higher than 1 μM
Method: as §4, §5

[11] = test system: HeLa; assay: Drug combination assay, HeLa; type: cell-based
Method: as §4, with “reagent. Drug interactions, in terms of synergism, additive effect, or antagonism, were based on the drugs' Combination Index (CI) (Chou et al., Adv. Enzyme Regul. 1984, 22, 27).” for “reagent.”
as §5, with “S2). […] Therefore, in these two cases the drug interaction was evaluated by comparing the IC50 value of Sudemycin with that of the IC50 values resulting from the serial dilutions of the splicing modulator combined with a constant dose of the non-toxic drug.” for “S2).”

[12] = test system: PC-3; assay: Drug combination assay, PC-3; type: cell-based; details: inhibitor + compound 19
Method: as §4, with “reagent. Drug interactions, in terms of synergism, additive effect, or antagonism, were based on the drugs' Combination Index (CI) (Chou et al., Adv. Enzyme Regul. 1984, 22, 27).” for “reagent.”
as §5, with “S2). […] Therefore, in these two cases the drug interaction was evaluated by comparing the IC50 value of Sudemycin with that of the IC50 values resulting from the serial dilutions of the splicing modulator combined with a constant dose of the non-toxic drug.” for “S2).”

[13] = test system: WiDr; assay: Drug combination assay, WiDr; type: cell-based; details: inhibitor + compound 19
Method: as §4, with “reagent. Drug interactions, in terms of synergism, additive effect, or antagonism, were based on the drugs' Combination Index (CI) (Chou et al., Adv. Enzyme Regul. 1984, 22, 27).” for “reagent.”
as §5, with “S2). […] Therefore, in these two cases the drug interaction was evaluated by comparing the IC50 value of Sudemycin with that of the IC50 values resulting from the serial dilutions of the splicing modulator combined with a constant dose of the non-toxic drug.” for “S2).”

[14] = test system: Sk-N-AS; assay: Drug combination assay, Sk-N-AS neuroblastoma; type: cell-based; details: Sk-N-AS; inhibitor + compound 19
Method: as §4, §5

[15] = PC-3, Table III, read-out: PC3 IC50

CC(/C=C/[C@@H]1C[C@]2(CO2)CC(C)(C)O1)=C\C[C@H]1OC[C@@H](NC(=O)/C=C\[C@H](C)OC(N)=O)CO1
IC50 ([1]; Table III): 1900 nM | IC50 [2, 15]: > 10000 nM

CCN(CC)C(=O)O[C@@H](C)/C=C\C(=O)N[C@H]1CO[C@@H](C/C=C(C)/C=C/[C@@H]2C[C@]3(CO3)CC(C)(C)O2)OC1
IC50 ([1]; Table III): > 1000 nM | IC50 ([2]; PC-3, read-out: PC3 IC50): > 10000 nM

CC(/C=C/[C@@H]1C[C@]2(CO2)CC(C)(C)O1)=C\C[C@H]1CC[C@@H](NC(=O)/C=C\[C@H](C)OC(=O)N(C)C)CC1 [compound 19, (S,Z)-5-(((1R,4R)-4-((2E,4E)-5-((3R,5S)-7,7-Methyl-1,6-Dioxaspiro[2.5]Octan-5-Yl)-3-Methylpenta-2,4-Dien-1-Yl)Cyclohexyl)Amino)-5-Oxopent-3-En-2-Yl Dimethylcarbamate]
effect on replication [3]: cells expressing mutant U2AF1 are extremely sensitive | alternative MDM2 splicing ([4]; Rh18, 8 h, PCR (FIG. 9)): induction of alternative MDM2 splicing | synergy with PI3K/mTOR inhibition ([5]; all cell lines investigated): synergy is also seen | apoptosis (annexin V stained cells among GFP positive cells) ([6]; 75 or 100 nM): cells expressing mutant U2AF1 the most sensitive | effect on expression of GFP from the splicing construct ([6]; concentration dependent, GFP vs WT-U2AF1 vs MUT-U2AF1 cells): greater sensitivity realized in the mutant U2AF1 cells

CC(/C=C/[C@@H]1C[C@]2(CO2)CC(C)(C)O1)=C\C[C@H]1CC[C@@H](NC(=O)/C=C\[C@H](C)OC(=O)C(C)C)CC1
Buffer Soluble [7]: No | IC50 ([1]; Table II): 47 nM | Plasma Stability [8]: No | Rapid Onset [9]: Yes (“Yes” indicates maximum cytotoxicity or splicing modulation is seen within 5 hours of drug treatment.) | MDM2 Splicing Effects [4]: Yes

CNC(=O)O[C@@H](C)/C=C\C(=O)N[C@H]1CO[C@@H](C/C=C(C)/C=C/[C@@H]2C[C@]3(CO3)CC(C)(C)O2)OC1
IC50 ([1]; Table III): 900 nM | IC50 ([2]; PC-3, read-out: PC3 IC50): > 10000 nM

CC(=O)O[C@@H](C)/C=C\C(=O)N[C@H]1CC[C@@H](C/C=C(C)/C=C/[C@@H]2C[C@]3(CO3)CC(C)(C)O2)CC1
Buffer Soluble [7]: No | IC50 ([1]; Table II): 100 nM | Plasma Stability [8]: No | Rapid Onset [9]: Yes (“Yes” indicates maximum cytotoxicity or splicing modulation is seen within 5 hours of drug treatment.) | MDM2 Splicing Effects [4]: Yes

O=C(O)CCCCCCCCCCCNC(=O)NC12CC3CC(CC(C3)C1)C2 [AUDA]
Interaction Type [10]: Synergism (0.3-0.7) | cytotoxicity alone ([11]; HeLa cells, 15 μM): not cytotoxic | drug interaction with compound 19 (panel of 23 drugs) [5]: synergy | cytotoxic effect of drug alone ([5]; single drug in combination assays): Neither AUDA nor NCND alone produced a cytotoxic effect

COCCNC(=O)O[C@@H](C)/C=C\C(=O)N[C@H]1CO[C@@H](C/C=C(C)/C=C/[C@@H]2C[C@]3(CO3)CC(C)(C)O2)OC1
IC50 ([1]; Table III): > 1000 nM | IC50 [2, 15]: > 10000 nM

CCCCNC(=O)O[C@@H](C)/C=C\C(=O)N[C@H]1CO[C@@H](C/C=C(C)/C=C/[C@@H]2C[C@]3(CO3)CC(C)(C)O2)OC1
IC50 ([1]; Table III): > 1000 nM | IC50 [2, 15]: > 10000 nM

C=CCN(/C=C1/C(=O)O[C@H](COC)[C@@]2(C)C1=C(O)C(=O)C1=C2[C@H](OC(C)=O)C[C@]2(C)C(=O)CC[C@@H]12)CC=C [PX-866]
CI of 19 + inhibitor [12]: 0.67 | CI in SK-MEL-2 with compound 19 ([10]; Combination Index at ED50, CalcuSyn 2.1, listed drug + compound 19): 0.57 | CI of 19 + inhibitor ([10]; SK-MEL-2, inhibitor + compound 19): 0.57 | Interaction Type [10]: Synergism (0.3-0.7) | CI of 19 + inhibitor ([11]; HeLa, inhibitor + compound 19): 0.49 | drug interaction with compound 20 [5]: demonstrated synergy | CI of 19 + inhibitor [13]: 0.33 | CI of 19 + inhibitor [14]: 0.65

Source: patent US9682993B2, “Anticancer compounds” (ST. JUDE CHILDREN'S RESEARCH HOSPITAL, priority 2012, dated 2017)
